Values of other authors, collected in patent US20060201391A1, “Compositions having sustained-release insect repellency” (priority 2005, published 2006).

System: mosquitoes, stable flies and deer ticks

C[C@H]1COC(=O)[C@@H]2[C@@H]1CC[C@@H]2C [DHN, dihydronepetalactone]
insect repellency compared with DEET: substantially equivalent to DEET
